# Experimental data reported in patent publication US10465167B2, “Adjuvant for rapid proliferation of human mesenchymal stem cells in vitro, method for rapid proliferation of human mesenchymal stem cells in vitro, method for growth factor harvested from rapid proliferation of human mesenchymal stem cells in vitro and use thereof” (BUDDHIST TZU CHI MEDICAL FOUNDATION, priority 2013, dated 2019).
# Tests used:
# [1] = system: adipose tissue-derived stem cells; assay: Western Blot of p21 and CDK2 proteins, normal vs high oxygen; format: cell-based, human; conditions: high oxygen environment (37.5%); FIG. 4B
# Source text: The culture conditions of the adipose tissue-derived stem cell are divided into four groups as described in the aforementioned section 5. The Western Blot Analysis is used for the analysis to observe the effect of the controlling and adjusting the cell cycle related proteins of the adipose tissue-derived stem cells cultured in different culture conditions on the protein expression of the cell cycle related proteins (such as p21 and CDK2). Similarly, the expression of the β-actin protein is used as a control for the standardization of quantifying each aforementioned protein expression into data.
# [2] = system: adipose tissue-derived stem cells; assay: Cell growth density analysis, normal vs high oxygen environment; format: cell-based, human; conditions: high oxygen environment (37.5%), seventh day; FIG. 4A
# Source text: In this experiment, the culture conditions are divided into four groups, respectively: a culture group with a basic medium and FGF-2 in a normal oxygen environment, a culture group with a basic medium and FGF-2 in a high oxygen environment, a culture group with a basic medium and the adjuvant of the present invention in a normal oxygen environment, and a culture group with a basic medium and the adjuvant of the present invention in a high oxygen environment, wherein the high oxygen environment refers to a partial pressure of oxygen approximately equal to 37.5%, and parameters of the culture conditions (such as a basic medium, an incubator and a cell culture density) are the same as described in Section 1 of the aforementioned Experiment 1.
# The cells are cleaned once by a phosphate buffer solution (PBS), and then reacted with a Trypsin-EDTA solution at 37 degrees Celsius for 5 minutes, and then the cell spatula is used to remove incompletely reacted cells carefully, and the same proportion of a medium containing a fetal bovine serum is used for neutralizing the enzyme activity of trypsin. The number of cells is measured by a cell counter (Vi-CELL AS, Beckman Coulter). […] Each set of experiment data is measured for three times, and the result is expressed in term of mean± standard deviation.
substance,measurement,setting,value
"FGF-2: basic fibroblast growth factor, concentration of 10 ng/mL (R&D Systems), comparison culture additive",expression of the p21 protein,[1],significant increase of the expression of the p21 protein
same,total number of cells,[2],below 2.5×10^6
